Where two headings read alike, the source gives them in different places.
How the values were obtained:
[1] = molecular target: T1, human H3 receptor (Homo sapiens, UniProt Q9Y5N1); test: H3 receptor binding (N-[3H]-α-methylhistamine displacement); settings: membranes of SK-N-MC cells expressing cloned human H3 receptor, 0.8 nM N-[3H]-α-methylhistamine, 60 min at 25° C.
T1 construct: expressed in transfected cells

[2] = molecular target: T2, human SERT (Homo sapiens, UniProt P31645); test: Human SERT binding (3H-citalopram displacement); settings: HEK293 membranes expressing human SERT, rt 1 h
T2 construct: expressed in transfected cells; host or cells: HEK293 membranes
T2 sequence (P31645 whole entry): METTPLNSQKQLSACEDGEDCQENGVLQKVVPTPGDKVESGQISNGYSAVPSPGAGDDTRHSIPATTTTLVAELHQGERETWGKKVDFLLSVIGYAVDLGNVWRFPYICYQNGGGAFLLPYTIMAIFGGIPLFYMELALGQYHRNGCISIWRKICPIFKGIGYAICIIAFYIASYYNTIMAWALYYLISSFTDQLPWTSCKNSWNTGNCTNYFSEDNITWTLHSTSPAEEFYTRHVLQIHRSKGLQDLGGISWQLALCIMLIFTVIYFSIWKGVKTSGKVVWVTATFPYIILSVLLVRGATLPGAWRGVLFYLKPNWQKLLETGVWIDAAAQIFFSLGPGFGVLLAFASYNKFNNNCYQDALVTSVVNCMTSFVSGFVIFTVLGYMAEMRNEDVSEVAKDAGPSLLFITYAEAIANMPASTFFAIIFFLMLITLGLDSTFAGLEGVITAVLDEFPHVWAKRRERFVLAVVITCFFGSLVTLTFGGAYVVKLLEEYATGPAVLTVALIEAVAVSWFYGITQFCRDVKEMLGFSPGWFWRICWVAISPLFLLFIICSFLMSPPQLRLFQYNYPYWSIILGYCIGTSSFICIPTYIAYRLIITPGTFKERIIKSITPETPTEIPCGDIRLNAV
Procedure: Homogenized HEK293 (Human Embryonic Kidney) membranes expressing the human SERT were incubated with ^3H-citalopram (SERT) at rt for 1 h in 50 mM Tris, 120 mM NaCl, 5 mM KCl (pH 7.4). […] The membranes were washed and the radioactivity was counted as above.

[3] = molecular target: T3, Rat SERT (Rattus norvegicus, UniProt P31652); test: Rat brain SERT binding ([3H]-citalopram displacement); settings: rat brain membranes without cerebellum, 0.6 nM [3H]-citalopram, 60 min at 25° C.
T3 construct: A rat brain without cerebellum (Zivic Laboratories, Inc.—Pittsburgh, Pa.) was homogenized; tissue Zivic Laboratories, Inc; host or cells: rat brain without cerebellum, membranes
T3 sequence (P31652 whole entry): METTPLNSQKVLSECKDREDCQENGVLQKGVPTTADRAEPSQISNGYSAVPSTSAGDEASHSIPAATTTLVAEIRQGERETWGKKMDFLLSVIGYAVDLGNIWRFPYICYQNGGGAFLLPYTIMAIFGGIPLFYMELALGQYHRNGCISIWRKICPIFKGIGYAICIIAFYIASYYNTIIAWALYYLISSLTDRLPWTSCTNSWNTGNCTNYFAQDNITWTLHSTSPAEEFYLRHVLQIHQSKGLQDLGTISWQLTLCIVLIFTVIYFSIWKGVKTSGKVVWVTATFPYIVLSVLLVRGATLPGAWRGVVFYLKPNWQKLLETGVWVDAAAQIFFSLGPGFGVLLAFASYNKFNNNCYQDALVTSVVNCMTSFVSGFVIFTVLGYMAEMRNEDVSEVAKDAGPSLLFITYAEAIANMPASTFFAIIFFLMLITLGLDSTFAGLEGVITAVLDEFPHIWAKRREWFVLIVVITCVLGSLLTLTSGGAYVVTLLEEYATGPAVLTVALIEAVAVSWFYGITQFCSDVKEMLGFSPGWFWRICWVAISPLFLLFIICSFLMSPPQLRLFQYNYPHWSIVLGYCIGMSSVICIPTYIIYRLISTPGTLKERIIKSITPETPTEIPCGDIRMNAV
Procedure: The supernatant was removed and re-centrifuged at 15,000 rpm for 30 min. […] Membranes were incubated with 0.6 nM [^3H]-Citalopram plus/minus test compounds for 60 min at 25° C. and harvested by rapid filtration over GF/C glass fiber filters (pretreated with 0.3% polyethylenimine) followed by four washes with ice-cold buffer.

T1 sequence (Q9Y5N1 whole entry): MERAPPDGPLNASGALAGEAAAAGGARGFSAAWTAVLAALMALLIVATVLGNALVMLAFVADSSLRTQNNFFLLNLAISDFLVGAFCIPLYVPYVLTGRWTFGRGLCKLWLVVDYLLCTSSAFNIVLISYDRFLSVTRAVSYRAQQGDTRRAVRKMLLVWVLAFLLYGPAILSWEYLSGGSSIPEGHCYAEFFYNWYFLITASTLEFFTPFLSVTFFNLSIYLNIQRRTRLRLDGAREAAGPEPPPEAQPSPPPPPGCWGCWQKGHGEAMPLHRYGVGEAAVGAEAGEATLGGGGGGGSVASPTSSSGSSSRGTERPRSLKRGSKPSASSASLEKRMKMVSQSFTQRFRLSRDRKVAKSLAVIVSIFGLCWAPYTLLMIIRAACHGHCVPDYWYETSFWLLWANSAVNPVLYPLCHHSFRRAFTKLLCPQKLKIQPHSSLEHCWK

Row | Ki [1] | Ki [2] | Ki ([3]; read-out: Rat SERT Ki) | Ki ([3]; Rat SERT Ki (nM)) | Compound
1 | 2 nM | 3 nM | 2 nM |  | COc1ccc(C2CN(C)Cc3cc(OCCCN4CCCCC4CO)ccc32)cc1 (stereo not drawn) [Example 24, (1-{3-[4-(4-Methoxy-phenyl)-2-methyl-1,2,3,4-tetrahydro-isoquinolin-7-yloxy]-propyl}-piperidin-2-yl)-methanol]
2 | 12 nM | 5 nM | 2 nM |  | COc1ccc(C2CN(C)Cc3cc(OCCCN4CCC(CCO)CC4)ccc32)cc1 (stereo not drawn) [Example 26, 2-(1-{3-[4-(4-Methoxy-phenyl)-2-methyl-1,2,3,4-tetrahydro-isoquinolin-7-yloxy]-propyl}-piperidin-4-yl)-ethanol]
3 | 20 nM | 8 nM | 9 nM |  | CCN(CCCOc1ccc2c(c1)CN(C)CC2c1ccc(OC)cc1)CCOC (stereo not drawn) [Example 40, Ethyl-(2-methoxy-ethyl)-{3-[4-(4-methoxy-phenyl)-2-methyl-1,2,3,4-tetrahydro-isoquinolin-7-yloxy]-propyl}-amine]
4 | 1 nM | 89 nM | 22 nM |  | COc1ccc(C2CN(C(C)C)Cc3cc(OCCCN4CCCCC4)ccc32)cc1 (stereo not drawn) [Example 68, 2-Isopropyl-4-(4-methoxy-phenyl)-7-(3-piperidin-1-yl-propoxy)-1,2,3,4-tetrahydro-isoquinoline]
5 | 3 nM | 7 nM | 7 nM |  | COc1ccc(C2CN(C)Cc3cc(OCC4CCN(C)CC4)ccc32)cc1 (stereo not drawn) [Example 84, 4-(4-Methoxy-phenyl)-2-methyl-7-(1-methyl-piperidin-4-ylmethoxy)-1,2,3,4-tetrahydro-isoquinoline]
6 | 1 nM | 11 nM | 11 nM |  | COc1cccc(C2CN(C)Cc3cc(OCC4CCN(C(C)C)CC4)ccc32)c1 (stereo not drawn) [Example 91, 7-(1-Isopropyl-piperidin-4-ylmethoxy)-4-(3-methoxy-phenyl)-2-methyl-1,2,3,4-tetrahydro-isoquinoline]
7 | 2 nM | 9 nM | 12 nM |  | COc1cccc(C2CN(C)Cc3cc(OCC4CCN(C)CC4)ccc32)c1 (stereo not drawn) [Example 92, 4-(3-Methoxy-phenyl)-2-methyl-7-(1-methyl-piperidin-4-ylmethoxy)-1,2,3,4-tetrahydro-isoquinoline]
8 | 11 nM | 3 nM | 5 nM |  | CSc1ccc(C2CN(C)Cc3cc(OCC4CCN(C5CCC5)CC4)ccc32)cc1 (stereo not drawn) [Example 104, 7-(1-Cyclobutyl-piperidin-4-ylmethoxy)-2-methyl-4-(4-methylsulfanyl-phenyl)-1,2,3,4-tetrahydro-isoquinoline]

More lines, now with the values behind:

Row | Compound | Ki [1] | Ki [2] | Ki ([3]; read-out: Rat SERT Ki) | Ki ([3]; Rat SERT Ki (nM))
9 | COc1ccc(C2CN(C)Cc3cc(OCCCN4CCCC(C(F)(F)F)C4)ccc32)cc1 (stereo not drawn) [Example 25, 4-(4-Methoxy-phenyl)-2-methyl-7-[3-(3-trifluoromethyl-piperidin-1-yl)-propoxy]-1,2,3,4-tetrahydro-isoquinoline] | 7 nM | 6 nM | 10 nM | 
10 | COc1ccc(C2CN(C)Cc3cc(OCCCN4CCC[C@@H]4CO)ccc32)cc1 (stereo partly drawn) [Example 30, (1-{3-[4-(4-Methoxy-phenyl)-2-methyl-1,2,3,4-tetrahydro-isoquinolin-7-yloxy]-propyl}-pyrrolidin-(2R)-yl)-methanol] | 3 nM | 2 nM | 2 nM | 
11 | COc1ccc(C2CN(C)Cc3cc(OCCCN4CC[C@@H](O)C4)ccc32)cc1 (stereo partly drawn) [Example 31, 1-{3-[4-(4-Methoxy-phenyl)-2-methyl-1,2,3,4-tetrahydro-isoquinolin-7-yloxy]-propyl}-(R)-pyrrolidin-3-ol] | 2 nM | 3 nM | 2 nM | 
12 | COc1ccc(C2CN(C)Cc3cc(OCCCN4C[C@@H](C)O[C@@H](C)C4)ccc32)cc1 (stereo partly drawn) [Example 32, 7-[3-(2,6-Dimethyl-morpholin-4-yl)-propoxy]-4-(4-methoxy-phenyl)-2-methyl-1,2,3,4-tetrahydro-isoquinoline] | 21 nM | 9 nM | 8 nM | 
13 | COc1ccc(C2CN(C)Cc3cc(OCCCN4CCCC4C)ccc32)cc1 (stereo not drawn) [Example 35, 4-(4-Methoxy-phenyl)-2-methyl-7-[3-(2-methyl-pyrrolidin-1-yl)-propoxy]-1,2,3,4-tetrahydro-isoquinoline] | 1 nM | 3 nM |  | 2 nM
14 | COc1ccc(C2CN(C)Cc3cc(OCCCN4CCCCC4CCO)ccc32)cc1 (stereo not drawn) [Example 36, 2-(1-{3-[4-(4-Methoxy-phenyl)-2-methyl-1,2,3,4-tetrahydro-isoquinolin-7-yloxy]-propyl}-piperidin-2-yl)-ethanol] | 7 nM | 3 nM | 2 nM | 
15 | COc1ccc(C2CN(C)Cc3cc(OCCCN4CCCC(F)C4)ccc32)cc1 (stereo not drawn) [Example 39, 7-[3-(3-Fluoro-piperidin-1-yl)-propoxy]-4-(4-methoxy-phenyl)-2-methyl-1,2,3,4-tetrahydro-isoquinoline] | 3 nM | 3 nM | 3 nM | 
16 | COc1ccc(C2CN(C)Cc3cc(OCC(O)CN4CCCCC4)ccc32)cc1 (stereo not drawn) [Example 42, 1-[4-(4-Methoxy-phenyl)-2-methyl-1,2,3,4-tetrahydro-isoquinolin-7-yloxy]-3-piperidin-1-yl-propan-2-ol] | 3 nM | 8 nM | 3 nM | 
17 | CN1Cc2cc(OCCCN3CCC(F)CC3)ccc2C(c2cccc(Cl)c2)C1 (stereo not drawn) [Example 46, 4-(3-Chloro-phenyl)-7-[3-(4-fluoro-piperidin-1-yl)-propoxy]-2-methyl-1,2,3,4-tetrahydro-isoquinoline] | 3 nM | 26 nM | 14 nM | 
18 | CN1Cc2cc(OCCCN3CCC(F)CC3)ccc2C(c2ccc(Cl)cc2)C1 (stereo not drawn) [Example 47, 4-(4-Chloro-phenyl)-7-[3-(4-fluoro-piperidin-1-yl)-propoxy]-2-methyl-1,2,3,4-tetrahydro-isoquinoline] | 10 nM | 11 nM | 27 nM | 
19 | CN1Cc2cc(OCCCN3CCC(F)CC3)ccc2C(c2cccc(F)c2)C1 (stereo not drawn) [Example 48, 4-(3-Fluoro-phenyl)-7-[3-(4-fluoro-piperidin-1-yl)-propoxy]-2-methyl-1,2,3,4-tetrahydro-isoquinoline] | 6 nM | 118 nM | 31 nM | 
20 | COc1ccc(C2CN(C(C)(C)C)Cc3cc(OCCCN4CCCCC4)ccc32)cc1 (stereo not drawn) [Example 64, 2-tert-Butyl-4-(4-methoxy-phenyl)-7-(3-piperidin-1-yl-propoxy)-1,2,3,4-tetrahydro-isoquinoline] | 1 nM | 252 nM | 222 nM | 
21 | CCN1Cc2cc(OCCCN3CCCCC3)ccc2C(c2ccc(OC)cc2)C1 (stereo not drawn) [Example 66, 2-Ethyl-4-(4-methoxy-phenyl)-7-(3-piperidin-1-yl-propoxy)-1,2,3,4-tetrahydro-isoquinoline] | 1 nM | 4 nM | 5 nM | 
22 | CSc1ccc(C2CN(C)Cc3cc(OCC4CCN(C(C)C)CC4)ccc32)cc1 (stereo not drawn) [Example 103, 7-(1-Isopropyl-piperidin-4-ylmethoxy)-2-methyl-4-(4-methylsulfanyl-phenyl)-1,2,3,4-tetrahydro-isoquinoline] | 7 nM | 3 nM | 8 nM | 
23 | CCCN1CCC(COc2ccc3c(c2)CN(C)CC3c2ccc(SC)cc2)CC1 (stereo not drawn) [Example 109, 2-Methyl-4-(4-methylsulfanyl-phenyl)-7-(1-propyl-piperidin-4-ylmethoxy)-1,2,3,4-tetrahydro-isoquinoline] | 8 nM | 3 nM | 10 nM | 
